Results published in ChEMBL document CHEMBL5321290, “Discovery of the Diphenyl 6-Oxo-1,6-dihydropyridazine-3-carboxylate/carboxamide Analogue J27 for the Treatment of Acute Lung Injury and Sepsis by Targeting JNK2 and Inhibiting the JNK2-NF-κB/MAPK Pathway” (J Med Chem, 2023).
The source made the active and inactive calls. The rule behind the calls is not given here.

Key:
J774.A1 [1] = test: Antiinflammatory activity against mouse J774A.1 cells assessed as inhibition of LPS-stimulated TNFalpha release measured at 10 uM after 30 mins by ELISA relative to control; format: functional; settings: for inhibition at 10 µM: J774.A1, 0.5 h
J774.A1 [2] = test: Antiinflammatory activity against mouse J774A.1 cells assessed as inhibition of LPS-stimulated IL6 release measured at 10 uM after 30 mins by ELISA relative to control; format: functional; settings: for inhibition at 10 µM: J774.A1, 0.5 h

Row | SMILES | inhibition at 10 µM (J774.A1 [1]) | inhibition at 10 µM (J774.A1 [2]) | inhibition (J774.A1 [1]) | inhibition (J774.A1 [2])
1 | COc1cc2nccc(Oc3cccc(NC(=O)c4nn(-c5ccc(F)cc5)c(=O)cc4C)c3)c2cc1OC | 20.6% | 38% | – | –
2 | CCc1ccccc1-n1nc(C(=O)Nc2cccc(Oc3ncnc4cc(OC)c(OC)cc34)c2)c(C)cc1=O | – | – | inactive | inactive
3 | COc1cc2ncnc(Oc3ccc(NC(=O)c4nn(-c5ccc(F)cc5)c(=O)cc4C)cc3)c2cc1OC | 70.1% | 20.6% | – | –
4 | CCc1ccccc1-n1nc(C(=O)Nc2ccc(Oc3ccnc4cc(OC)c(OC)cc34)cc2)c(C)cc1=O | 27.9% | 55.1% | – | –
5 | COc1cc2nccc(Oc3ccc(NC(=O)c4nn(-c5ccccc5)c(=O)cc4C)cc3)c2cc1OC | 52% | – | – | inactive
6 | COc1cc2ncnc(Oc3cccc(NC(=O)c4nn(-c5ccccc5)c(=O)cc4C)c3)c2cc1OC | – | – | inactive | inactive
7 | COc1cc2nccc(Oc3cccc(NC(=O)c4nn(-c5ccccc5)c(=O)cc4C)c3)c2cc1OC | 0.35% | – | – | inactive
8 | COc1cc2nccc(Oc3ccc(NC(=O)c4nn(-c5ccc(F)cc5)c(=O)cc4C)cc3)c2cc1OC | – | 5.11% | inactive | –
9 | COc1cc2ncnc(Oc3cccc(NC(=O)c4nn(-c5ccc(F)cc5)c(=O)cc4C)c3)c2cc1OC | – | 16.1% | inactive | –
10 | COc1cc2ncnc(Oc3cccc(NC(=O)c4nn(-c5ccc(C)cc5)c(=O)cc4C)c3)c2cc1OC | – | 47.3% | inactive | –
11 | COc1cc2ncnc(Nc3ccc(OC(=O)c4nn(-c5ccccc5)c(=O)cc4C)c(C)c3)c2cc1OC | – | 23.9% | inactive | –
12 | COc1ccc(-n2nc(C(=O)Nc3cccc(Oc4ncnc5cc(OC)c(OC)cc45)c3)c(C)cc2=O)cc1 | – | 7.64% | inactive | –
13 | COc1cc2ncnc(Oc3ccc(NC(=O)c4nn(-c5ccccc5)c(=O)cc4C)cc3)c2cc1OC | 46.9% | 54.8% | – | –
14 | COc1ccc(-n2nc(C(=O)Oc3cc(Nc4ncnc5cc(OC)c(OC)cc45)ccc3F)c(C)cc2=O)cc1 | – | 31.9% | inactive | –
15 | COc1cc2ncnc(Nc3ccc(F)c(OC(=O)c4nn(-c5ccc(C)cc5)c(=O)cc4C)c3)c2cc1OC | 34.9% | 48% | – | –
16 | COc1cc2ncnc(Nc3ccc(F)c(OC(=O)c4nn(-c5ccccc5)c(=O)cc4C)c3)c2cc1OC | 49.6% | 32.1% | – | –
17 | CCc1ccc(-n2nc(C(=O)Oc3cc(Nc4ncnc5cc(OC)c(OC)cc45)ccc3F)c(C)cc2=O)cc1 | 21.8% | 38.3% | – | –
18 | CCc1ccc(-n2nc(C(=O)Nc3ccc(Oc4ccnc5cc(OC)c(OC)cc45)cc3)c(C)cc2=O)cc1 | 61.9% | 34.9% | – | –
19 | COc1ccc(-n2nc(C(=O)Nc3ccc(Oc4ncnc5cc(OC)c(OC)cc45)cc3)c(C)cc2=O)cc1 | 57.5% | – | – | inactive
20 | COc1cc2ncnc(Oc3ccc(NC(=O)c4nn(-c5ccc(C)cc5)c(=O)cc4C)cc3)c2cc1OC | 64% | 63% | – | –
21 | CCc1ccccc1-n1nc(C(=O)Nc2cccc(Oc3ccnc4cc(OC)c(OC)cc34)c2)c(C)cc1=O | 63.4% | 25.1% | – | –
22 | CCc1ccc(-n2nc(C(=O)Nc3cccc(Oc4ncnc5cc(OC)c(OC)cc45)c3)c(C)cc2=O)cc1 | – | 39% | inactive | –
23 | COc1ccc(-n2nc(C(=O)Nc3cccc(Oc4ccnc5cc(OC)c(OC)cc45)c3)c(C)cc2=O)cc1 | – | – | inactive | inactive
24 | COc1ccc(-n2nc(C(=O)Nc3ccc(Oc4ccnc5cc(OC)c(OC)cc45)cc3)c(C)cc2=O)cc1 | 12.1% | – | – | inactive
25 | COc1cc2ncnc(Nc3ccc(F)c(OC(=O)c4nn(-c5ccc(F)cc5)c(=O)cc4C)c3)c2cc1OC | 38.8% | 46.5% | – | –
26 | CCc1ccccc1-n1nc(C(=O)Nc2ccc(Oc3ncnc4cc(OC)c(OC)cc34)cc2)c(C)cc1=O | 58% | 18.4% | – | –
27 | COc1cc2nccc(Oc3cccc(NC(=O)c4nn(-c5ccc(C)cc5)c(=O)cc4C)c3)c2cc1OC | – | – | inactive | inactive
28 | COc1cc2ncnc(Nc3ccc(C)c(OC(=O)c4nn(-c5ccccc5)c(=O)cc4C)c3)c2cc1OC | – | 20.7% | inactive | –
29 | CCc1ccccc1-n1nc(C(=O)Oc2cc(Nc3ncnc4cc(OC)c(OC)cc34)ccc2F)c(C)cc1=O | – | – | inactive | inactive
